Measured values as given in patent US6358885B1, “Substituted phenylheterocyclic herbicides” (Mississippi State University, priority 1992, dated 2002).

Columns and labels:
bedstraw = test: Test C preemergence/postemergence greenhouse plant response rating 0 to 100; type: in vivo, Galium aparine; conditions: POSTEMERGENCE
In short: (§1)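 Compounds in non-phytotoxic solvent applied preemergence to sandy loam one day after planting, postemergence at the 1–4 leaf stage, or to ~2.5 cm floodwater over silt loam.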

soybean [1] = test: Test B preemergence/postemergence greenhouse plant response rating 0 to 10; type: in vivo, Glycine max; conditions: 0 to 10 scale
In short: (§2)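 Postemergence treatment of plants two to eighteen cm tall ran alongside preemergence treatment of planted seed, each using compound in a non-phytotoxic solvent.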

purple nutsedge = test: as above; type: in vivo, Cyperus rotundus; conditions: 0 to 10 scale
In short: as §2

umbrella sedge = test: Test C flood test plant response rating 0 to 100; type: in vivo, Cyperus difformis
In short: as §1

sorghum = test: Test B preemergence/postemergence greenhouse plant response rating 0 to 10; type: in vivo, Sorghum bicolor; conditions: 0 to 10 scale
In short: as §2

morningglory [2] = test: as above; type: in vivo, Ipomoea hederacea; conditions: 0 to 10 scale
In short: as §2

chickweed [3] = test: as above; type: in vivo, Stellaria media; conditions: Rate 10 g/ha, 0 to 10 scale
In short: as §2

wheat = test: as above; type: in vivo, Triticum aestivum; conditions: 0 to 10 scale
In short: as §2

crabgrass = test: as above; type: in vivo, Digitaria spp.; conditions: for Plant response rating, Crabgrass: 0 to 10 scale
In short: as §2

wild oat = test: as above; type: in vivo, Avena fatua; conditions: POSTEMERGENCE, 0 to 10 scale
In short: as §2

morningglory [4] = test: Test C preemergence/postemergence greenhouse plant response rating 0 to 100; type: in vivo, Ipomoea hederacea; conditions: POSTEMERGENCE
In short: as §1

soybean [5] = test: as above; type: in vivo, Glycine max; conditions: POSTEMERGENCE
In short: as §1

barley = test: as above; type: in vivo, Hordeum vulgare; conditions: POSTEMERGENCE
In short: as §1

wild buckwheat = test: as above; type: in vivo, Polygonum convolvulus; conditions: POSTEMERGENCE
In short: as §1

rape = test: Test B preemergence/postemergence greenhouse plant response rating 0 to 10; type: in vivo, Brassica napus; conditions: 0 to 10 scale
In short: as §2

chickweed [6] = test: Test C preemergence/postemergence greenhouse plant response rating 0 to 100; type: in vivo, Stellaria media; conditions: POSTEMERGENCE
In short: as §1

corn = test: Test B preemergence/postemergence greenhouse plant response rating 0 to 10; type: in vivo, Zea mays; conditions: for Plant response rating, Corn: 0 to 10 scale
In short: as §2

downy brome = test: Test C preemergence/postemergence greenhouse plant response rating 0 to 100; type: in vivo, Bromus tectorum; conditions: POSTEMERGENCE
In short: as §1

## CCCN1C(=O)COc2cc(F)c(-c3nn4c(c3Cl)CCCC4)cc21 [Compound 32]
bedstraw; 62 g/ha, 0 to 100 scale
  Plant response rating, Bedstraw: 100
bedstraw; Rate 1 g/ha
  Plant response rating (0 to 100), Bedstraw: 85
bedstraw; Rate 4 g/ha
  Plant response rating (0 to 100), Bedstraw: 90
bedstraw; Rate 16 g/ha
  Plant response rating (0 to 100), Bedstraw: 100
Soybean [1]; POSTEMERGENCE, Rate 10 g/ha
  Plant response rating, Soybean: 7
Soybean [1]; POSTEMERGENCE, Rate 50 g/ha
  Plant response rating, Soybean: 8
Soybean [1]; PREEMERGENCE, Rate 50 g/ha
  Plant response rating, Soybean: 0
Purple nutsedge; POSTEMERGENCE, Rate 10 g/ha
  Plant response rating, Nutsedge: 2
Purple nutsedge; POSTEMERGENCE, Rate 50 g/ha
  Plant response rating, Nutsedge: 4
Purple nutsedge; PREEMERGENCE, Rate 50 g/ha
  Plant response rating, Nutsedge: 0
Umbrella sedge; POSTEMERGENCE section, flood test, Rate 1 g/ha
  Plant response rating (0 to 100), Umbrella sedge: 0
Umbrella sedge; POSTEMERGENCE section, flood test, Rate 4 g/ha
  Plant response rating (0 to 100), Umbrella sedge: 0
Umbrella sedge; Rate 16 g/ha, under POSTEMERGENCE head (flood test species)
  Plant response rating (0 to 100), Umbrella sedge: 20
Umbrella sedge; flood test species listed under POSTEMERGENCE, 62 g/ha, 0 to 100 scale
  Plant response rating Umbrella sedge: 60
sorghum; POSTEMERGENCE, Rate 10 g/ha
  Plant response rating, Sorghum: 6
sorghum; POSTEMERGENCE, Rate 50 g/ha
  Plant response rating, Sorghum: 6
sorghum; PREEMERGENCE, Rate 50 g/ha
  Plant response rating, Sorghum: 2
Morningglory [2]; POSTEMERGENCE, Rate 10 g/ha
  Plant response rating, Morningglory: 10
Morningglory [2]; POSTEMERGENCE, Rate 50 g/ha
  Plant response rating, Morningglory: 10
Morningglory [2]; PREEMERGENCE, Rate 50 g/ha
  Plant response rating, Morningglory: 2
Chickweed [3]; POSTEMERGENCE
  Plant response rating, Chickweed: 10
Chickweed [3]; PREEMERGENCE
  Plant response rating, Chickweed: 0
wheat; POSTEMERGENCE, Rate 10 g/ha
  Plant response rating, Wheat: 5
wheat; POSTEMERGENCE, Rate 50 g/ha
  Plant response rating, Wheat: 5
wheat; PREEMERGENCE, Rate 50 g/ha
  Plant response rating, Wheat: 0
crabgrass; POSTEMERGENCE, Rate 10 g/ha
  Plant response rating, Crabgrass: 3
crabgrass; POSTEMERGENCE, Rate 50 g/ha
  Plant response rating (0 to 10 scale), Crabgrass: 5
crabgrass; PREEMERGENCE, Rate 10 g/ha
  Plant response rating, Crabgrass: 2
crabgrass; PREEMERGENCE, Rate 50 g/ha
  Plant response rating, Crabgrass: 3
Wild oat; Rate 10 g/ha
  Plant response rating, Wild oat: 4
Wild oat; Rate 50 g/ha
  Plant response rating, Wild oat: 4
Morningglory [4]; 62 g/ha, 0 to 100 scale
  Plant response rating, Morningglory: 100
Morningglory [4]; Rate 1 g/ha
  Plant response rating (0 to 100), Morningglory: 50
Morningglory [4]; Rate 4 g/ha
  Plant response rating (0 to 100), Morningglory: 70
Morningglory [4]; Rate 16 g/ha
  Plant response rating (0 to 100), Morningglory: 100
Soybean [5]; 62 g/ha, 0 to 100 scale
  Plant response rating, Soybean: 90
Soybean [5]; Rate 1 g/ha
  Plant response rating (0 to 100), Soybean: 20
Soybean [5]; Rate 4 g/ha
  Plant response rating (0 to 100), Soybean: 50
Soybean [5]; Rate 16 g/ha
  Plant response rating (0 to 100), Soybean: 70
barley; 62 g/ha, 0 to 100 scale
  Plant response rating Barley Igri: 50
barley; Rate 1 g/ha
  Plant response rating (0 to 100), Barley Igri: 20
barley; Rate 4 g/ha
  Plant response rating (0 to 100), Barley Igri: 30
barley; Rate 16 g/ha
  Plant response rating (0 to 100), Barley Igri: 30
Wild buckwheat; 62 g/ha, 0 to 100 scale
  Plant response rating, Wild buckwheat: 95
Wild buckwheat; Rate 1 g/ha
  Plant response rating (0 to 100), Wild buckwheat: 30
Wild buckwheat; Rate 4 g/ha
  Plant response rating (0 to 100), Wild buckwheat: 60
Wild buckwheat; Rate 16 g/ha
  Plant response rating (0 to 100), Wild buckwheat: 90
rape; POSTEMERGENCE, Rate 10 g/ha
  Plant response rating, Rape: 6
rape; POSTEMERGENCE, Rate 50 g/ha
  Plant response rating, Rape: 10
rape; PREEMERGENCE, Rate 50 g/ha
  Plant response rating, Rape: 2
Chickweed [6]; 62 g/ha, 0 to 100 scale
  Plant response rating, Chickweed: 100
Chickweed [6]; Rate 1 g/ha
  Plant response rating (0 to 100), Chickweed: 30
Chickweed [6]; Rate 4 g/ha
  Plant response rating (0 to 100), Chickweed: 60
Chickweed [6]; Rate 16 g/ha
  Plant response rating (0 to 100), Chickweed: 90
corn; POSTEMERGENCE, Rate 10 g/ha
  Plant response rating, Corn: 3
corn; POSTEMERGENCE, Rate 50 g/ha
  Plant response rating (0 to 10 scale), Corn: 4
corn; PREEMERGENCE, Rate 50 g/ha
  Plant response rating, Corn: 0
Downy brome; 62 g/ha, 0 to 100 scale
  Plant response rating Downy Brome: 50
Downy brome; Rate 1 g/ha
  Plant response rating (0 to 100), Downy Brome: 20
Downy brome; Rate 4 g/ha
  Plant response rating (0 to 100), Downy Brome: 30
Downy brome; Rate 16 g/ha
  Plant response rating (0 to 100), Downy Brome: 40
